Consider 20 molecules from US20240327382A1 (ALMAC DISCOVERY LIMITED, priority 2021, published 2024).

What is called IC50 is the concentration needed to halve the response being measured.

In this test the target is T1, Full-length USP19 (Homo sapiens, UniProt O94966).
T1 construct: Full-length USP19 was purchased from Boston Biochem (E-576); purchased Boston Biochem E-576
T1 sequence (O94966 1-1318): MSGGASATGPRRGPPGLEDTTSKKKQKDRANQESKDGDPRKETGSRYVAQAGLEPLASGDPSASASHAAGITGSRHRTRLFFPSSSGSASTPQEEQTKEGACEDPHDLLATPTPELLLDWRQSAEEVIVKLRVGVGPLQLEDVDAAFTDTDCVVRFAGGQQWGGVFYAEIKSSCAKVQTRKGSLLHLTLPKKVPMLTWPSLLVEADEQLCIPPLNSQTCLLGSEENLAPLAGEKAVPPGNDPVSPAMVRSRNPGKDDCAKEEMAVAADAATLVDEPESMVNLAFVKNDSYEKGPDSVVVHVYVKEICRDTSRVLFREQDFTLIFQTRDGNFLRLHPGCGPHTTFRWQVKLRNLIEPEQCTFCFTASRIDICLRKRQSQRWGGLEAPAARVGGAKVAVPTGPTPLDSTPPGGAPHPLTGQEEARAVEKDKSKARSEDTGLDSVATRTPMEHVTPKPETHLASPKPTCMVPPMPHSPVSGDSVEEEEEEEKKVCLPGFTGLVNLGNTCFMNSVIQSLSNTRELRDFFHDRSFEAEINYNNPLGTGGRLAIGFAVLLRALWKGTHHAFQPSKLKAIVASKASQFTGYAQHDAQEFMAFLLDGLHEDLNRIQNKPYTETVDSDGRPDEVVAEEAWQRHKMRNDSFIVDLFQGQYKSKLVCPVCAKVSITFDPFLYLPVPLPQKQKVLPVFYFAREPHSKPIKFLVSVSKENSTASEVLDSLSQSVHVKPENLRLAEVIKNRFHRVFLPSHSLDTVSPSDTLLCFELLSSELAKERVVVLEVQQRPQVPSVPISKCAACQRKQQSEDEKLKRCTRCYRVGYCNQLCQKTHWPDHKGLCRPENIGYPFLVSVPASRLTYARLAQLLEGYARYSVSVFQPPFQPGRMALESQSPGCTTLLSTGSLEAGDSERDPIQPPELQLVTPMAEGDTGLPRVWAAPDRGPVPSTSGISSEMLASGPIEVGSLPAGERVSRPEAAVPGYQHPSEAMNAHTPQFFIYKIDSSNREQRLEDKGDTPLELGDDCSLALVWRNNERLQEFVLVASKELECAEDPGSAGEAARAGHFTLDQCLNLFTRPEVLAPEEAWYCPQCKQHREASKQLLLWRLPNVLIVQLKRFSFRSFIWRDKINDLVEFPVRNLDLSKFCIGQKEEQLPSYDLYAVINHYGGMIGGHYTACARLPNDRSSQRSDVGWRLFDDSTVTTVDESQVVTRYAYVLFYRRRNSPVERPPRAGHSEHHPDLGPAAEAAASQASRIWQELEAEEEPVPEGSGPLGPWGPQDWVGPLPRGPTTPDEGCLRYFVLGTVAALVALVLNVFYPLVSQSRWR
The test is described as follows: USP19 fluorescence polarisation (FP) assay, Ubiquitin-Lys-TAMRA substrate. The test is classed as biochemical. The note with it: average of at least two duplicate experiments. In short, it runs like this: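 Full-length human USP19 (added at 2.5 nM) was preincubated 30 min at RT with inhibitor (serial dilutions 200 μM to 2 μM) in 50 mM HEPES pH 7.4, 150 mM NaCl, 5 mM DTT, 0.05% BSA, 0.05% CHAPS. Ubiquitin-Lys-TAMRA isopeptide substrate (added at 500 nM) started the reaction, and FP (Ex 530/Em 575 nm) was read every 15 min over 90 min. IC50 came from non-linear regression of signal normalised to no-compound control, averaged over at least two duplicate experiments.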
Background: In fluorescence polarisation assays a small probe gives low polarisation when free and higher when bound to something large.
Consider `CN[C@@H]1CCN(C(=O)N2CC[C@@H](Cn3cnc(-c4ccccc4F)cc3=O)C3(CCCC3)C2)[C@H](c2ccc(F)cc2F)C1` [Example 141, 3-(((R)-7-((2S,4R)-2-(2,4-Difluorophenyl)-4-(methylamino)piperidine-1-carbonyl)-7-azaspiro[4.5]decan-10-yl)methyl)-6-(2-fluorophenyl)pyrimidin-4(3H)-one], for which the IC50 is less than 10 nM.

With `CN[C@@H]1CCN(C(=O)N2CCC(Cn3cnc(-c4ccccc4)cc3=O)CC2)[C@H](c2cccc(F)c2)C1` [Example 74, 3-((1-((2S,4R)-2-(3-Fluorophenyl)-4-(methylamino)piperidine-1-carbonyl)piperidin-4-yl)methyl)-6-phenylpyrimidin-4(3H)-one], the IC50 is less than 10 nM.

On to `O=C(N1CC[C@@H](Cn2ccc(-c3ccccc3)cc2=O)C2(CCCC2)C1)N1CC[C@@H](NC2(CF)COC2)C[C@H]1c1ccccc1` [Example 112, 1-(((R)-7-((2S,4R)-4-((3-(Fluoromethyl)oxetan-3-yl)amino)-2-phenylpiperidine-1-carbonyl)-7-azaspiro[4.5]decan-10-yl)methyl)-4-phenylpyridin-2(1H)-one], for which the IC50 was in the range of 10 to 100 nM.

Consider `O=C(N1CC[C@@H](Cn2cnc(-c3ccccc3)cc2=O)C2(CCCC2)C1)N1CC[C@@H](NCC(F)F)C[C@H]1c1ccccc1` [Example 71, 3-(((R)-7-((2S,4R)-4-((2,2-Difluoroethyl)amino)-2-phenylpiperidine-1-carbonyl)-7-azaspiro[4.5]decan-10-yl)methyl)-6-phenylpyrimidin-4(3H)-one], for which the IC50 was less than 10 nM.

With `CN[C@@H]1CCN(C(=O)N2CC[C@@H](Cn3ccc(-c4ccccc4OC)cc3=O)C3(CCCC3)C2)[C@H](c2cc(F)cc(F)c2)C1` [Example 126, 1-(((R)-7-((2S,4R)-2-(3,5-Difluorophenyl)-4-(methylamino)piperidine-1-carbonyl)-7-azaspiro[4.5]decan-10-yl)methyl)-4-(2-methoxyphenyl)pyridin-2(1H)-one], the IC50 is less than 10 nM.

For `N[C@@H]1CCN(C(=O)N2CCC(Cn3ccc4ccncc4c3=O)C3(CCCC3)C2)[C@H](c2ccccc2)C1` (stereo partly drawn) [Example 33, 2-((7-((2S,4R)-4-Amino-2-phenylpiperidine-1-carbonyl)-7-azaspiro[4.5]decan-10-yl)methyl)-2,7-naphthyridin-1(2H)-one], the IC50 was 10 to 100 nM.

For the molecule `O=C(N1CC[C@@H](Cn2ccc(-c3ccccc3)cc2=O)C2(CCCC2)C1)N1CC[C@@H](NC2CS(=O)(=O)C2)C[C@H]1c1ccccc1` [Example 50, 1-(((R)-7-((2S,4R)-4-((1,1-Dioxidothietan-3-yl)amino)-2-phenylpiperidine-1-carbonyl)-7-azaspiro[4.5]decan-10-yl)methyl)-4-phenylpyridin-2(1H)-one], the IC50 was 10 to 100 nM.

For the molecule `CN[C@@H]1CCN(C(=O)N2CC[C@@H](Cn3ccc(-c4ccccc4OC)cc3=O)C3(CCCC3)C2)[C@H](c2ccc(F)cc2)C1` [Example 120, 1-(((R)-7-((2S,4R)-2-(4-Fluorophenyl)-4-(methylamino)piperidine-1-carbonyl)-7-azaspiro[4.5]decan-10-yl)methyl)-4-(2-methoxyphenyl)pyridin-2(1H)-one], the IC50 was less than 10 nM.

On to `O=C(N1CC[C@H](Cn2cnc(-c3ccccc3)cc2=O)C2(CCCC2)C1)N1CCNC[C@H]1c1ccccc1` (single isomer, unassigned) [Example 13], for which the IC50 was in the range of 100 to 1000 nM.

Turning to `N[C@@H]1CCN(C(=O)N2CC[C@@H](Cn3ccc(-c4ccccc4)cc3=O)C3(CCCC3)C2)[C@H](c2cccc(F)c2)C1` [Example 65, 1-(((R)-7-((2S,4R)-4-Amino-2-(3-fluorophenyl)piperidine-1-carbonyl)-7-azaspiro[4.5]decan-10-yl)methyl)-4-phenylpyridin-2(1H)-one], the IC50 is less than 10 nM.

`CN[C@@H]1CCN(C(=O)N2CC[C@@H](Cn3cnc(-c4ccccc4OC)cc3=O)C3(CCCC3)C2)[C@H](c2cccc(F)c2F)C1` [Example 149, 3-(((R)-7-((2S,4R)-2-(2,3-Difluorophenyl)-4-(methylamino)piperidine-1-carbonyl)-7-azaspiro[4.5]decan-10-yl)methyl)-6-(2-methoxyphenyl)pyrimidin-4(3H)-one]: the IC50 was less than 10 nM.

For `CN[C@@H]1CCN(C(=O)N2CC[C@@H](Cn3cnc(-c4ccccc4C)cc3=O)C3(CCCC3)C2)[C@H](c2cccc(F)c2F)C1` [Example 136, 3-(((R)-7-((2S,4R)-2-(2,3-Difluorophenyl)-4-(methylamino)piperidine-1-carbonyl)-7-azaspiro[4.5]decan-10-yl)methyl)-6-(0-tolyl)pyrimidin-4(3H)-one], the IC50 was less than 10 nM.

For `N[C@@H]1CCN(C(=O)N2CC[C@H](Cn3ccc(-c4ccccc4)cc3=O)C3(CCCC3)C2)[C@H](c2ccccc2)C1` [Example 24, 1-(((S)-7-((2S,4R)-4-Amino-2-phenylpiperidine-1-carbonyl)-7-azaspiro[4.5]decan-10-yl)methyl)-4-phenylpyridin-2(1H)-one], the IC50 was 1000 to 20000 nM.

Turning to `CC(C)N[C@@H]1CCN(C(=O)N2CC[C@@H](Cn3cnc4ccc(F)cc4c3=O)C3(CCCC3)C2)[C@H](c2cc(F)ccc2F)C1` [Example 189, 3-(((R)-7-((2S,4R)-2-(2,5-Difluorophenyl)-4-(isopropylamino)piperidine-1-carbonyl)-7-azaspiro[4.5]decan-10-yl)methyl)-6-fluoroquinazolin-4(3H)-one], the IC50 is less than 10 nM.

For the molecule `O=C(N[C@@H]1CCN(C(=O)N2CC[C@@H](Cn3cnc(-c4ccccc4)cc3=O)C3(CCCC3)C2)[C@H](c2cc(F)ccc2F)C1)c1ccccn1` [Example 165, N-((2S,4R)-2-(2,5-Difluorophenyl)-1-((R)-10-((6-oxo-4-phenylpyrimidin-1(6H)-yl)methyl)-7-azaspiro[4.5]decane-7-carbonyl)piperidin-4-yl)picolinamide], the IC50 is 10 to 100 nM.

For the molecule `CN[C@H]1C[C@@H](c2ccccc2)N(C(=O)N2CC[C@@H](Cn3cnc(-c4ccccc4)cc3=O)C3(CCCC3)C2)C1` [Example 90, 3-(((R)-7-((2S,4S)-4-(Methylamino)-2-phenylpyrrolidine-1-carbonyl)-7-azaspiro[4.5]decan-10-yl)methyl)-6-phenylpyrimidin-4(3H)-one], the half-maximal inhibitory concentration (IC50) was less than 10 nM.

Consider `CN[C@@H]1CCN(C(=O)N2CC[C@@H](Cn3cnc(-c4ccccc4F)cc3=O)C3(CCCC3)C2)[C@H](c2cc(F)ccc2F)C1` [Example 145, 3-(((R)-7-((2S,4R)-2-(2,5-Difluorophenyl)-4-(methylamino)piperidine-1-carbonyl)-7-azaspiro[4.5]decan-10-yl)methyl)-6-(2-fluorophenyl)pyrimidin-4(3H)-one], for which the IC50 is less than 10 nM.

As to `N[C@@H]1CCN(C(=O)N2CC[C@@H](Cn3cnc(-c4ccccc4)cc3=O)C3(CCCC3)C2)[C@H](c2cc(F)ccc2F)C1` [Example 86, 3-(((R)-7-((2S,4R)-4-amino-2-(2,5-difluorophenyl)piperidine-1-carbonyl)-7-azaspiro[4.5]decan-10-yl)methyl)-6-phenylpyrimidin-4(3H)-one], the IC50 was less than 10 nM.

Turning to `CN[C@@H]1CCN(C(=O)N2CC[C@@H](Cn3cnc(-c4ccccc4C)cc3=O)C3(CCCC3)C2)[C@H](c2cc(F)cc(F)c2)C1` [Example 146, 3-(((R)-7-((2S,4R)-2-(3,5-Difluorophenyl)-4-(methylamino)piperidine-1-carbonyl)-7-azaspiro[4.5]decan-10-yl)methyl)-6-(o-tolyl)pyrimidin-4(3H)-one], the IC50 is less than 10 nM.

For the molecule `CN[C@@H]1CCN(C(=O)N2CC[C@@H](CN3CC(c4ccccc4)=CC3=O)C3(CCCC3)C2)[C@H](c2cc(F)ccc2F)C1` [Example 178, 1-(((R)-7-((2S,4R)-2-(2,5-Difluorophenyl)-4-(methylamino)piperidine-1-carbonyl)-7-azaspiro[4.5]decan-10-yl)methyl)-4-phenyl-1,5-dihydro-2H-pyrrol-2-one], the IC50 fell in the range of 10 to 100 nM.
